Experimental data taken from the NIST ThermoML archive (doi:10.1021/je060271a).
“And” between values parts separate entries of the source, which are not always exact repeats. Identical values can stand only once.

Conditions: Liquid, Vibrating tube method

CCCCC(=O)OCC(COC(=O)CCCC)(COC(=O)CCCC)COC(=O)CCCC [pentaerythritol tetrapentanoate]
Conditions | mass density
343.14 K, 22204 kPa | 994.9 kg/m3
343.14 K, 22235 kPa | 994.9 kg/m3
343.14 K, 22267 kPa | 995 kg/m3
343.14 K, 22298 kPa | 995 kg/m3
343.14 K, 22334 kPa | 995 kg/m3
343.14 K, 22365 kPa | 994.9 kg/m3
343.14 K, 22395 kPa | 994.9 kg/m3
343.14 K, 22432 kPa | 994.9 kg/m3
343.14 K, 22462 kPa | 995.1 kg/m3
343.14 K, 22494 kPa | 995 kg/m3
343.14 K, 22562 kPa | 995.1 kg/m3
343.14 K, 22594 kPa | 995 kg/m3
343.14 K, 22728 kPa | 995.2 kg/m3
343.14 K, 22766 kPa | 995.2 kg/m3
343.14 K, 22798 kPa | 995.3 kg/m3
343.14 K, 22830 kPa | 995.3 kg/m3
343.14 K, 22868 kPa | 995.3 kg/m3
343.14 K, 22901 kPa | 995.4 kg/m3
343.14 K, 22933 kPa | 995.4 kg/m3
343.14 K, 22971 kPa | 995.4 kg/m3
343.14 K, 23004 kPa | 995.4 kg/m3
343.14 K, 23038 kPa | 995.4 kg/m3
343.14 K, 23077 kPa | 995.5 kg/m3
343.14 K, 23110 kPa | 995.5 kg/m3
343.14 K, 23144 kPa | 995.4 kg/m3
343.14 K, 23177 kPa | 995.5 kg/m3
343.14 K, 23217 kPa | 995.5 kg/m3
343.14 K, 23284 kPa | 995.6 kg/m3
343.14 K, 23357 kPa | 995.6 kg/m3
343.14 K, 23391 kPa | 995.5 kg/m3
343.14 K, 23432 kPa | 995.8 kg/m3
343.14 K, 23500 kPa | 995.8 kg/m3
343.14 K, 23535 kPa | 995.9 kg/m3
343.14 K, 23577 kPa | 995.7 kg/m3
343.14 K, 23612 kPa | 995.8 kg/m3
343.14 K, 23646 kPa | 995.8 kg/m3
343.14 K, 23687 kPa | 995.8 kg/m3
343.14 K, 23722 kPa | 995.9 kg/m3
343.14 K, 23757 kPa | 995.9 kg/m3
343.14 K, 23799 kPa | 995.9 kg/m3
343.14 K, 23834 kPa | 996 kg/m3
343.14 K, 23870 kPa | 996 kg/m3
343.14 K, 23913 kPa | 996.1 kg/m3
343.14 K, 23949 kPa | 996.2 kg/m3
343.14 K, 24100 kPa | 996 kg/m3
343.14 K, 24817 kPa | 996.7 kg/m3
343.14 K, 25020 kPa | 996.6 kg/m3
343.14 K, 25061 kPa | 996.8 kg/m3
343.14 K, 25102 kPa | 996.8 kg/m3
343.14 K, 25142 kPa | 996.7 kg/m3
343.14 K, 25188 kPa | 996.9 kg/m3
343.14 K, 25228 kPa | 996.9 kg/m3
343.14 K, 25406 kPa | 996.9 kg/m3
343.14 K, 25451 kPa | 997.1 kg/m3
343.14 K, 25495 kPa | 997 kg/m3
343.14 K, 25549 kPa | 997 kg/m3
343.14 K, 25596 kPa | 997.1 kg/m3
343.14 K, 25644 kPa | 997.2 kg/m3
343.14 K, 25691 kPa | 997.1 kg/m3
343.14 K, 25745 kPa | 997.1 kg/m3
343.14 K, 25792 kPa | 997.2 kg/m3
343.14 K, 25943 kPa | 997.2 kg/m3
343.14 K, 25992 kPa | 997.3 kg/m3
343.14 K, 26041 kPa | 997.5 kg/m3
343.14 K, 26099 kPa | 997.5 kg/m3
343.14 K, 26149 kPa | 997.5 kg/m3
343.14 K, 30161 kPa | 1000.1 kg/m3
343.14 K, 32316 kPa | 1001.3 kg/m3
343.14 K, 32354 kPa | 1001.4 kg/m3
343.14 K, 32399 kPa | 1001.4 kg/m3
343.14 K, 32523 kPa | 1001.6 kg/m3
343.15 K, 106.2 kPa | 978.6 kg/m3
343.15 K, 106.4 kPa | 978.5 kg/m3 and 978.6 kg/m3
343.15 K, 106.6 kPa | 978.5 kg/m3
343.15 K, 106.7 kPa | 978.6 kg/m3
343.15 K, 106.8 kPa | 978.6 kg/m3
343.15 K, 106.9 kPa | 978.6 kg/m3
343.15 K, 107.4 kPa | 978.6 kg/m3
343.15 K, 109.5 kPa | 978.6 kg/m3
343.15 K, 114.4 kPa | 978.4 kg/m3
343.15 K, 120 kPa | 978.7 kg/m3
343.15 K, 122.2 kPa | 978.7 kg/m3
343.15 K, 125.2 kPa | 978.7 kg/m3
343.15 K, 129.2 kPa | 978.7 kg/m3
343.15 K, 133.3 kPa | 978.6 kg/m3
343.15 K, 138.9 kPa | 978.6 kg/m3
343.15 K, 146.6 kPa | 978.5 kg/m3
343.15 K, 154.5 kPa | 978.6 kg/m3
343.15 K, 164.6 kPa | 978.5 kg/m3
343.15 K, 180.1 kPa | 978.6 kg/m3
343.15 K, 197 kPa | 978.6 kg/m3
343.15 K, 217.8 kPa | 978.7 kg/m3
343.15 K, 250.8 kPa | 978.7 kg/m3
343.15 K, 286.7 kPa | 978.8 kg/m3
343.15 K, 330.1 kPa | 978.8 kg/m3
343.15 K, 380.3 kPa | 978.7 kg/m3
343.15 K, 749.2 kPa | 979 kg/m3
343.15 K, 1709.2 kPa | 979.9 kg/m3
343.15 K, 1788.2 kPa | 980 kg/m3
343.15 K, 1843.4 kPa | 979.8 kg/m3
343.15 K, 1867.5 kPa | 979.9 kg/m3
343.15 K, 1894.4 kPa | 980 kg/m3
343.15 K, 1917.3 kPa | 979.9 kg/m3
343.15 K, 1941.1 kPa | 980 kg/m3
343.15 K, 1965.4 kPa | 980.1 kg/m3
343.15 K, 1994.4 kPa | 979.9 kg/m3
343.15 K, 2019 kPa | 980.2 kg/m3
343.15 K, 2044.9 kPa | 980.2 kg/m3
343.15 K, 2075.6 kPa | 980 kg/m3
343.15 K, 2102.6 kPa | 980 kg/m3
343.15 K, 2129.9 kPa | 980.2 kg/m3
343.15 K, 2163.5 kPa | 980.2 kg/m3
343.15 K, 2193.4 kPa | 980.1 kg/m3
343.15 K, 2252.9 kPa | 980.3 kg/m3
343.15 K, 2352.8 kPa | 980.3 kg/m3
343.15 K, 2494.2 kPa | 980.5 kg/m3
343.15 K, 2573.8 kPa | 980.5 kg/m3
343.15 K, 2651 kPa | 980.7 kg/m3
343.15 K, 2698.2 kPa | 980.6 kg/m3
343.15 K, 2738.4 kPa | 980.4 kg/m3
343.15 K, 2779.7 kPa | 980.7 kg/m3
343.15 K, 2830.5 kPa | 980.7 kg/m3
343.15 K, 2972.7 kPa | 980.9 kg/m3
343.15 K, 3068.2 kPa | 981 kg/m3
343.15 K, 3117.1 kPa | 980.9 kg/m3
343.15 K, 3897.8 kPa | 981.5 kg/m3
343.15 K, 3924.9 kPa | 981.5 kg/m3
343.15 K, 3952.8 kPa | 981.6 kg/m3
343.15 K, 3986.3 kPa | 981.7 kg/m3
343.15 K, 4014.7 kPa | 981.6 kg/m3
343.15 K, 4043.6 kPa | 981.7 kg/m3
343.15 K, 4073 kPa | 981.8 kg/m3
343.15 K, 4107.7 kPa | 981.6 kg/m3
343.15 K, 4137.6 kPa | 981.7 kg/m3
343.15 K, 4168.8 kPa | 981.8 kg/m3
343.15 K, 4199.3 kPa | 981.8 kg/m3
343.15 K, 4230.1 kPa | 981.9 kg/m3
343.15 K, 4267.5 kPa | 981.9 kg/m3
343.15 K, 4299.4 kPa | 981.8 kg/m3
343.15 K, 4597.4 kPa | 982 kg/m3
343.15 K, 4629.6 kPa | 982.1 kg/m3
343.15 K, 4643.1 kPa | 982 kg/m3
343.15 K, 4660.4 kPa | 982.2 kg/m3
343.15 K, 4661.1 kPa | 982.1 kg/m3
343.15 K, 4661.7 kPa | 982.1 kg/m3
343.15 K, 4662.3 kPa | 982.1 kg/m3
343.15 K, 4662.6 kPa | 982 kg/m3
343.15 K, 4663.1 kPa | 982.2 kg/m3
343.15 K, 4754 kPa | 982 kg/m3
343.15 K, 4934.5 kPa | 982.4 kg/m3
343.15 K, 4956.5 kPa | 982.3 kg/m3
343.15 K, 4979.2 kPa | 982.3 kg/m3
343.15 K, 5005.6 kPa | 982.4 kg/m3
343.15 K, 5027.6 kPa | 982.5 kg/m3
343.15 K, 5050.1 kPa | 982.4 kg/m3
343.15 K, 5076.2 kPa | 982.3 kg/m3
343.15 K, 5120.9 kPa | 982.4 kg/m3
343.15 K, 5279.4 kPa | 982.6 kg/m3
343.15 K, 5366.4 kPa | 982.7 kg/m3
343.15 K, 5392 kPa | 982.8 kg/m3
